According to patent US20230203041A1, “ANTAGONISTS OF THE ADENOSINE A2A RECEPTOR” (AdoRx Therapeutics Limited, priority 2020, published 2023):
Where a name gives a salt, the structure may show the parent alone.

Assays:
[1] = target: T1, human Adenosine A2b receptor (Homo sapiens, UniProt P29275); assay: Adenosine receptor TR-FRET binding assay (CA200645 displacement), A2b; conditions: 30 nM CA200645, CHO cell membranes, 2 hours at room temperature
T1 construct: expressed in transfected cells; host or cells: CHO cell membranes
T1 sequence (P29275 1-332): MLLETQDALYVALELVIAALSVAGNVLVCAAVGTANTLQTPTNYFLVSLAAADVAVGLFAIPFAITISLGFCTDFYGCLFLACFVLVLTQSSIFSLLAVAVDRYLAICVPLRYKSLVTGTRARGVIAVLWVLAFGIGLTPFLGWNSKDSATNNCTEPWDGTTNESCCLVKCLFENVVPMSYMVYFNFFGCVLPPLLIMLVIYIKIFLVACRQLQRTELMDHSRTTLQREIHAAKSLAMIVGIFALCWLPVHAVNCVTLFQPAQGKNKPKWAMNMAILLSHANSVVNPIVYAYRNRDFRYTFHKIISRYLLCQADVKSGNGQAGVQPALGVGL

[2] = target: T2, human Adenosine A2a receptor (Homo sapiens, UniProt P29274); assay: Adenosine receptor TR-FRET binding assay (CA200645 displacement), A2a; conditions: 100 nM CA200645, CHO cell membranes, 2 hours at room temperature
T2 construct: expressed in transfected cells; host or cells: CHO cell membranes

[3] = target: T3, human Adenosine A3 receptor (Homo sapiens, UniProt P0DMS8); assay: Adenosine receptor TR-FRET binding assay (CA200645 displacement), A3
T3 sequence (P0DMS8 1-318): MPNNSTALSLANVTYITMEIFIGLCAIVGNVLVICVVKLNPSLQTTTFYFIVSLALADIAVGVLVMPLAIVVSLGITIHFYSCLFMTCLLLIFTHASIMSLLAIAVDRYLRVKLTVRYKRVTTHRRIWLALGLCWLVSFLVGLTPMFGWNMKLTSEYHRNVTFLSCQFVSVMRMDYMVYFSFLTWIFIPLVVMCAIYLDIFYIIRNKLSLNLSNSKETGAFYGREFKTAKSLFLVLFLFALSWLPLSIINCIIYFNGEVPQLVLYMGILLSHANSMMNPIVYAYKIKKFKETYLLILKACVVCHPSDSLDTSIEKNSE

[4] = target: T4, human Adenosine A1 receptor (Homo sapiens, UniProt P30542); assay: Adenosine receptor TR-FRET binding assay (CA200645 displacement), A1
T4 sequence (P30542 1-326): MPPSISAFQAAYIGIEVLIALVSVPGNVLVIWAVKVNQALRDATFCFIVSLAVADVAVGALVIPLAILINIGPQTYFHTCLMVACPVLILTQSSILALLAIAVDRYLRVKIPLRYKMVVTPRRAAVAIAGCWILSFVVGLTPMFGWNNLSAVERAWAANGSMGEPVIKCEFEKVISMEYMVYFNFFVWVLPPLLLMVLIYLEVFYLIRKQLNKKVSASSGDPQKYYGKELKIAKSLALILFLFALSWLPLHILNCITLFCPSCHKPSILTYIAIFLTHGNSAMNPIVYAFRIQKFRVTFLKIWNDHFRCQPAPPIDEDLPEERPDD
Method: All FRET binding experiments were conducted at room temperature in white 384-well plates, in assay binding buffer containing 1×LabMed (Cisbio, France), 100 μg/mL saponin, 1% DMSO and 0.02% pluronic acid. Binding of the fluorescently labelled Adenosine receptor antagonist XAC (CA200645, FRET acceptor) to terbium-labelled A1, A2a, A2b and A3 adenosine receptors (FRET donors) was detected by time-resolved FRET due to the close proximity of the donor and acceptor in a binding event. To investigate the ability of unlabelled test compounds to bind to Adenosine A1, A2a, A2b and A3 receptors, dose response curves were constructed that determined the ability of a range of concentrations to inhibit the binding of 30 nM CA200645 to the A2b receptor and 100 nM CA200645 to the A1, A2a, and A3 receptor.
Serial dilution (1:3 dilutions) of test compounds in neat DMSO and transfer of a 400 nL sample of test compound into the assay plate was carried out using the Mosquito (TTP Labtech, UK). The compound samples were incubated for 2 hours at room temperature with a fixed concentration of CA200645 defined for each receptor (see above) and CHO cell membranes containing the human Adenosine A1 (0.5 μg/well), A2a (0.3 μg/well), A2b (1 μg/well) or A3 (1 μg/well) receptor in 40 μL of assay buffer. Total and non-specific binding of CA200645 was determined in the absence and presence of 10 μM XAC, respectively. Following 2 hours incubation, the level of CA200645 binding was detected on a Pherastar FSX (BMG Labtech, Germany) using standard TR-FRET settings. The terbium donor was excited with three laser flashes at a wavelength of 337 nm, and donor and acceptor emission was detected at 620 nm and 665 nm wavelengths, respectively. FRET ratios were obtained by multiplying the acceptor/donor ratio value by 10,000. Specific binding was determined by subtracting the non-specific binding FRET ratio from the total binding FRET ratio. Compound IC50 curves were analysed using GraphPad Prism 7.0 (GraphPad, USA) and Ki affinity values were determined from the obtained IC50 values using the method of Cheng and Prusoff.

T2 sequence (P29274 whole entry): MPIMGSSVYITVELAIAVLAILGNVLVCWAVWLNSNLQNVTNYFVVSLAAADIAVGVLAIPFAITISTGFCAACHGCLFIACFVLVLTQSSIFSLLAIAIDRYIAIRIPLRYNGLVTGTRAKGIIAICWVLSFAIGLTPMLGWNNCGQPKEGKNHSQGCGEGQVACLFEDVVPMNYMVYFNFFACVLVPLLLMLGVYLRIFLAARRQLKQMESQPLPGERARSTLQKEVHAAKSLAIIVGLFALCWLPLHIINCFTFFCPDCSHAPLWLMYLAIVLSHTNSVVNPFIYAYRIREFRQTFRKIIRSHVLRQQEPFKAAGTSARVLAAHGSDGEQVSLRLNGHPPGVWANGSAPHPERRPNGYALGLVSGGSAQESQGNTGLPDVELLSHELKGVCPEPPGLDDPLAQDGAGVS

Row | SMILES | Ki [1] [nM] | Ki [2] [nM] | Ki [3] [nM] | Ki [4] [nM]
1 | Cc1cc(-c2c(-c3cccc(C#N)c3)nn3ccc(N[C@H]4CCCNC4)nc23)cc(Cl)n1 [Example 4.7] | 6 | 13.9 | > 1000 | 213
2 | Cc1cc(-c2c(-c3cccc(C#N)c3)nn3ccc(C(=O)NCC(C)(C)O)nc23)c(F)c(C)n1 [Example 101.1, 2-(3-Cyanophenyl)-3-(3-fluoro-2,6-dimethyl-4-pyridyl)-N-(2-hydroxy-2-methyl-propyl)pyrazolo[1,5-a]pyrimidine-5-carboxamide] | 38 | 4.3 | > 1000 | 1240
3 | Cc1cc(-c2c(-c3cccc(C#N)c3)nn3ccc(N4CC5CCC(C4)N5C)nc23)cc(Cl)n1 [Example 2.2] | 45 | 0.5 | > 1000 | 5
4 | Cc1cc(-c2c(-c3cccc(C#N)c3)nn3ccc(C(=O)NS(C)(=O)=O)nc23)cc(Cl)n1 [Example 6.8, 3-(2-Chloro-6-methyl-4-pyridyl)-2-(3-cyanophenyl)-N-methylsulfonyl-pyrazolo[1,5-a]pyrimidine-5-carboxamide] | 39 | 8.3 | 2550 | 522
5 | Nc1ccn2nc(-c3ccco3)c(-c3ccncc3)c2n1 [Example 79, 2-(2-Furyl)-3-(4-pyridyl)pyrazolo[1,5-a]pyrimidin-5-amine] | 34 | 146 | 2080 | 14
6 | Cc1cc(-c2c(-c3cccc(C#N)c3)nn3ccc(C(=O)N4CCOCC4)nc23)cc(Cl)n1 [Example 5.7] | 10 | 14.8 | > 1000 | 135
7 | Cc1cc(-c2c(-c3cccc(C#N)c3)nn3ccc(C(=O)N[C@@H]4COC[C@@H]4O)nc23)cc(C)n1 [Example 92.30] | 36 | 0.8 | > 1000 | 361
8 | Cc1cc(-c2c(-c3cccc(C#N)c3)nn3ccc(C(=O)NC[C@@H]4CNC(=O)C4)nc23)cc(C)n1 [Example 92.28] | 64 | 3.2 | > 1000 | 345
9 | Cc1cc(-c2c(-c3cccc(C#N)c3)nn3ccc(N/C(N)=N\C#N)nc23)cc(Cl)n1 [Example 32, 1-[3-(2-Chloro-6-methyl-4-pyridyl)-2-(3-cyanophenyl)pyrazolo[1,5-a]pyrimidin-5-yl]-2-cyano-guanidine] | 53 | 17.4 | > 1000 | 800
10 | Cc1cc(-c2c(-c3cccc(C#N)c3)nn3ccc(C(=O)N[C@H]4COC[C@H]4O)nc23)cc(C)n1 [Example 92.8] | 14 | 0.6 | > 1000 | 70
11 | CCn1nccc1-c1c(-c2cccc(C#N)c2)nn2ccc(N3CCNCC3)nc12 [Example 33.6] | 61 | 134 | > 1000 | 898
12 | Cc1cc(-c2c(-c3cccc(C#N)c3)nn3ccc(N4CCN[C@@H](C(C)(C)O)C4)nc23)cc(Cl)n1 [Example 2.40] | 23 | 5.7 | > 1000 | 145
13 | Cc1cc(-c2c(-c3cccc(C#N)c3)nn3ccc(C(=O)NC45CCC(N)(CC4)C5)nc23)cc(Cl)n1 [Example 6.12, N-(4-Aminonorbornan-1-yl)-3-(2-chloro-6-methyl-4-pyridyl)-2-(3-cyanophenyl)pyrazolo[1,5-a]pyrimidine-5-carboxamide] | 6 | 3.7 | > 1000 | 105
14 | Cc1cc(-c2c(-c3cccc(C#N)c3)nn3ccc(N4CCC4C(=O)O)nc23)cc(Cl)n1 (stereo not shown) [Example 2.34] | 163 | 22.5 | > 1000 | 234
15 | Cc1cc(-c2c(-c3cccc(C#N)c3)nn3ccc(N)nc23)cc(N(C)C)n1 [Example 29, 3-[5-Amino-3-[2-(dimethylamino)-6-methyl-4-pyridyl]pyrazolo[1,5-a]pyrimidin-2-yl]benzonitrile] | 56 | 15.2 | > 1000 | 144
16 | Cc1cc(-c2c(-c3cccc(C#N)c3)nn3ccc(C(=O)NCCC(C)(C)O)nc23)cc(Cl)n1 [Example 5.3] | 20 | 0.3 | > 1000 | 224
17 | Cc1cc(-c2c(-c3cccc(C#N)c3)nn3ccc(N4CCC5(CC4)CNC(=O)C5)nc23)cc(C)n1 [Example 105, 3-[3-(2,6-Dimethyl-4-pyridyl)-5-(3-oxo-2,8-diazaspiro[4.5]decan-8-yl)pyrazolo[1,5-a]pyrimidin-2-yl]benzonitrile] | 378 | 127 | > 1000 | 776
18 | Cc1cc(-c2c(-c3cccc(C#N)c3)nn3ccc(NC(=O)C(C)(C)C)nc23)cc(Cl)n1 [Example 95, N-[3-(2-Chloro-6-methyl-4-pyridyl)-2-(3-cyanophenyl)pyrazolo[1,5-a]pyrimidin-5-yl]-2,2-dimethyl-propanamide] | 31 | 2.7 | > 1000 | 146
19 | N#Cc1c(-c2ccco2)nn2ccc(NC[C@H]3CCCN3)nc12 [Example 80, 2-(2-furyl)-5-[[(2R)-pyrrolidin-2-yl]methylamino]pyrazolo[1,5-a]pyrimidine-3-carbonitrile hydrochloride] | 4460 | 155 | > 1000 | 988
20 | Cc1cc(-c2c(-c3cccc(C#N)c3)nn3ccc(C(=O)NCC4CCCNC4=O)nc23)cc(C)n1 (stereo not shown) [Example 92.15] | 19 | 0.3 | 599 | 150
21 | Cc1cc(-c2c(-c3cccc(C#N)c3)nn3ccc(C(=N)NC(C)(C)C)nc23)cc(Cl)n1 [Example 90, N-tert-Butyl-3-(2-chloro-6-methyl-4-pyridyl)-2-(3-cyanophenyl)pyrazolo [1,5-a]pyrimidine-5-carboxamidine] | 80 | 12.3 | > 1000 | 1840
22 | Cc1cc(-c2c(-c3cccc(C#N)c3)nn3ccc(N[C@@H]4CCOC4)nc23)cc(Cl)n1 [Example 2.6] | 12 | 1 | > 1000 | 87
23 | N#Cc1c(-c2ccco2)nn2ccc(NCCCO)nc12 [Example 55.1, 2-(2-Furyl)-5-(3-hydroxypropylamino)pyrazolo[1,5-a]pyrimidine-3-carbonitrile] | 1740 | 103 | 8460 | 355
24 | Cc1cccnc1CNc1ccn2nc(-c3ccco3)c(C(N)=O)c2n1 [Example 38, 2-(2-Furyl)-5-[(3-methyl-2-pyridyl)methylamino]pyrazolo[1,5-a]pyrimidine-3-carboxamide] | 971 | 10.5 | 1010 | 158
25 | Cc1cc(-c2c(-c3cccc(C#N)c3)nn3ccc(C(=O)NCC4(O)COC4)nc23)cc(Cl)n1 [Example 6.7, 3-(2-Chloro-6-methyl-4-pyridyl)-2-(3-cyanophenyl)-N-[(3-hydroxyoxetan-3-yl)methyl]pyrazolo[1,5-a]pyrimidine-5-carboxamide] | 5 | 1.4 | > 1000 | 174
26 | Cc1cc(-c2c(-c3cccc(C#N)c3)nn3ccc(C(=O)NCC4(N)CC(F)(F)C4)nc23)cc(Cl)n1 [Example 7.10, N-[(1-Amino-3,3-difluoro-cyclobutyl)methyl]-3-(2-chloro-6-methyl-4-pyridyl)-2-(3-cyanophenyl)pyrazolo[1,5-a]pyrimidine-5-carboxamide] | 19 | 4.3 | > 1000 | 181
27 | Cc1cc(-c2c(-c3cccc(C#N)c3)nn3ccc(CN)nc23)cc(Cl)n1 [Example 21, 3-[5-(Aminomethyl)-3-(2-chloro-6-methyl-4-pyridyl)pyrazolo[1,5-a]pyrimidin-2-yl]benzonitrile] | 102 | 81.5 | > 1000 | 2440
28 | Cc1cc(-c2c(-c3cccc(C#N)c3)nn3ccc(N[C@@H](C)C(=O)O)nc23)cc(Cl)n1 [Example 17, (2S)-2-[[3-(2-Chloro-6-methyl-4-pyridyl)-2-(3-cyanophenyl)pyrazolo[1,5-a]pyrimidin-5-yl]amino]propanoic acid] | 101 | 17.9 | > 1000 | 136
